Results on 2 molecules are retold here after US8952018B2, “Pharmaceutical combination of MEK inhibitor and B-Raf inhibitors” (GlaxoSmithKline LLC, priority 2009, dated 2015).

Assay [1] relates to HT-29. Description: Cell growth inhibition assay (Cell Titer Glo) and combination data analysis. It counts as cell-based. To be noted: Homo sapiens, 72 h, Colon, BRAF_V600E, 3 days, mean ± std. For orientation: In ATP-based viability assays light output follows the ATP content of the culture.
Excerpt: (§6) EOHSA values are defined as increases in improvement (here, in ‘percentage points’ (ppts) difference) produced by the combination over the best single agent at its component dose level for the combination. For single agent and combination treatments, cells were exposed to compounds at a fixed-dose-ratio, and dose response curves were fit to the experimental data and analyzed using regression models. […]
Assay [2] has as its system DLD1. The assay is described as above. To be noted: Homo sapiens, DLD-1, 72 h, Colon, KRAS_G13D, 3 days. It counts as cell-based.
Excerpt: as §6
Assay [3] has as its system 12R5-3. Described as above. To be noted: Homo sapiens, A375P-F11, 72 h, Melanoma, resistant clone of A375 PF11, BRAF_V600E, 3 days. It counts as cell-based.
Description: (§7) Cell growth inhibition assay and combination data analysis—All cells were cultured for a minimum of 72 hours prior to cell plating. Cells were assayed in a 96-well tissue culture plate (NUNC 136102) of RPMI medium containing 10% FBS for all cells at 1,000 cells per well. Approximately 24 hours after plating, cells were exposed to ten, three-fold serial dilutions of compound or the combination of the two agents at a constant molar to molar ratio of 1:10 Compound A (DMSO solvate) to Compound B (free form) in RPMI media containing 10% FBS. Concentrations tested for Compound A were 1 μM-0.05 nM and for Compound B were 10 μM-0.5 nM. Cells were incubated in the presence of compounds for 3 days. ATP levels were determined by adding Cell Titer Glo® (Promega) according to the manufacturer's protocol. Briefly, Cell Titer Glo® was added each plate, incubated for 30 minutes then luminescent signal was read on the SpectraMax L plate reader with a 0.5 sec integration time.
Assay [4] concerns 16R6-4. Described as above. It counts as cell-based. To be noted: Homo sapiens, A375P-F11, 72 h, Melanoma, resistant clone of A375 PF11, BRAF_V600E, 3 days.
Description: (§8) Cell growth inhibition assay and combination data analysis—All cells were cultured for a minimum of 72 hours prior to cell plating. Cells were assayed in a 96-well tissue culture plate (NUNC 136102) of RPMI medium containing 10% FBS for all cells at 1,000 cells per well. Approximately 24 hours after plating, cells were exposed to ten, three-fold serial dilutions of compound or the combination of the two agents at a constant molar to molar ratio of 1:10 Compound A (DMSO solvate) to Compound B (free form) in RPMI media containing 10% FBS. Concentrations tested for Compound A were 1 μM-0.05 nM and for Compound B were 10 μM-0.5 nM. […] ATP levels were determined by adding Cell Titer Glo® (Promega) according to the manufacturer's protocol. Briefly, Cell Titer Glo® was added each plate, incubated for 30 minutes then luminescent signal was read on the SpectraMax L plate reader with a 0.5 sec integration time.
The test system of assay [5] is melanoma lines 12R8-3, 12R8-1, 12R5-3, and 16R6-3. Description: Cell growth inhibition assay, summary of Table 3. Format: cell-based. To be noted: Homo sapiens; range over 12R8-3, 12R8-1, 12R5-3, 16R6-3; read-out: IC50, single agent.
Assay [6] has as its system A375PF11. Briefly: Cell growth inhibition assay (Cell Titer Glo) and combination data analysis. To be noted: Homo sapiens, A375P-F11, 72 h, Melanoma, BRAF_V600E, 3 days, mean ± std. Format: cell-based.
Description: as §7
The subject of assay [7] is Colo-205. The description is as above. It counts as cell-based. To be noted: Homo sapiens, 72 h, Colon, BRAF_V600E, 3 days, mean ± std.
Excerpt: as §6
The test system of assay [8] is 16R6-3. The description is as above. To be noted: Homo sapiens, A375P-F11, 72 h, Melanoma, resistant clone of A375 PF11, BRAF_V600E, 3 days. Format: cell-based.
Description: as §8
The subject of assay [9] is LS-1034. Described as above. Format: cell-based. To be noted: Homo sapiens, 72 h, Colon, KRAS_A146T, 3 days.
Assay [10] deals with RKO. The assay is described as above. Format: cell-based. To be noted: Homo sapiens, 72 h, Colon, BRAF_V600E, 3 days, mean ± std.
Excerpt: as §6
The subject of assay [11] is 12R5-1. The description is as above. Format: cell-based. To be noted: Homo sapiens, A375P-F11, 72 h, Melanoma, resistant clone of A375 PF11, BRAF_V600E, 3 days.
Description: as §8
For assay [12], the system named is NCI-H508. Described as above. To be noted: Homo sapiens, 72 h, Colon, BRAF_G596R, 3 days. Format: cell-based.
Assay [13] concerns HCT-8. The description is as above. Format: cell-based. To be noted: Homo sapiens, 72 h, Colon, KRAS_G13D, 3 days.
Assay [14] has as its system melanoma lines 16R5-2, 16R6-4 and 12R5-1. Description: Cell growth inhibition assay, summary of Table 3. To be noted: 16R5-2, 16R6-4, 12R5-1; compound alone. Format: cell-based, human. On the procedure: Cell lines and growth conditions—Human colon tumor lines, Colo-205, DLD-1, HCT-8, HT-29, LS-1034, NCI-H508, RKO, SW1417, SW1463, SW480 and SW837, and human melanoma line A375 were from ATCC. A375 PF11 was derived from A375.
Cell growth inhibition assay and combination data analysis—All cells were cultured for a minimum of 72 hours prior to cell plating. Cells were assayed in a 96-well tissue culture plate (NUNC 136102) of RPMI medium containing 10% FBS for all cells at 1,000 cells per well. […] ATP levels were determined by adding Cell Titer Glo® (Promega) according to the manufacturer's protocol. Briefly, Cell Titer Glo® was added each plate, incubated for 30 minutes then luminescent signal was read on the SpectraMax L plate reader with a 0.5 sec integration time.
Inhibition of cell growth was estimated after treatment with compound or combination of compounds for three days and comparing the signal to cells treated with vehicle (DMSO). Cell growth was calculated relative to vehicle (DMSO) treated control wells. […]
The combination effects on the response scale were quantified by Excess Over Highest Single Agent (EOHSA) based on the concept of nonlinear blending as described in detail by Peterson and Novick (2007) and Peterson (2010) [(2;3) [Peterson and Novick, 2007; Peterson, 2010]. […]

The test system of assay [15] is SW480. Description: Cell growth inhibition assay (Cell Titer Glo) and combination data analysis. It counts as cell-based. To be noted: Homo sapiens, 72 h, Colon, KRAS_G12C, 3 days.
The subject of assay [16] is seven colon lines without BRAF V600E mutation (either with BRAF G596R or KRAS mutations). Description: Cell growth inhibition assay, summary of Table 3. Format: cell-based. To be noted: Homo sapiens. On the procedure:
(§1) A375 PF11 was derived from A375.
(§2) Cell growth inhibition assay and combination data analysis—All cells were cultured for a minimum of 72 hours prior to cell plating. […] Cells were incubated in the presence of compounds for 3 days. ATP levels were determined by adding Cell Titer Glo® (Promega) according to the manufacturer's protocol. Briefly, Cell Titer Glo® was added each plate, incubated for 30 minutes then luminescent signal was read on the SpectraMax L plate reader with a 0.5 sec integration time.
(§3) Inhibition of cell growth was estimated after treatment with compound or combination of compounds for three days and comparing the signal to cells treated with vehicle (DMSO). Cell growth was calculated relative to vehicle (DMSO) treated control wells.
(§4) In general, a CI value <0.9, between 0.9 and 1.1, or >1.1 indicates synergy, additivity and antagonism, respectively. In general, the smaller the Cl number, the greater is the strength of synergy.
(§5) EOHSA values are defined as increases in improvement (here, in ‘percentage points’ (ppts) difference) produced by the combination over the best single agent at its component dose level for the combination. For single agent and combination treatments, cells were exposed to compounds at a fixed-dose-ratio, and dose response curves were fit to the experimental data and analyzed using regression models. At specified total dose levels of IC50 along the dose response curve, the dose combination (corresponding to IC50) was determined for making EOHSA statistical inferences.

The test system of assay [17] is four colon cell lines with BRAF V600E mutation. Briefly: Cell growth inhibition assay, summary of Table 3. Format: cell-based. To be noted: Homo sapiens, read-out: IC50 values, single agent. On the procedure:
as §1, §2, §3, §4, §5

The subject of assay [18] is 12R8-3. Briefly: Cell growth inhibition assay (Cell Titer Glo) and combination data analysis. Format: cell-based. To be noted: Homo sapiens, A375P-F11, 72 h, Melanoma, resistant clone of A375 PF11, BRAF_V600E, 3 days.
Description: as §7
The test system of assay [19] is SW1463. The description is as above. It counts as cell-based. To be noted: Homo sapiens, 72 h, Colon, KRAS_G12C, 3 days.
Description: as §7
In assay [20] the test system is 12R8-1. Described as above. It counts as cell-based. To be noted: Homo sapiens, A375P-F11, 72 h, Melanoma, resistant clone of A375 PF11, BRAF_V600E, 3 days.
Description: as §7
For assay [21], the system named is 16R5-2. Described as above. To be noted: Homo sapiens, A375P-F11, 72 h, Melanoma, resistant clone of A375 PF11, BRAF_V600E, 3 days. Format: cell-based.
Description: as §8
The subject of assay [22] is SW837. The description is as above. Format: cell-based. To be noted: Homo sapiens, 72 h, Colon, KRAS_G12C, 3 days.
Assay [23] has as its system SW1417. The assay is described as above. To be noted: Homo sapiens, 72 h, Colon, BRAF_V600E, 3 days, mean ± std. Format: cell-based.
Excerpt: as §6
[24] abbreviates: read-out: IC50 Single Agent Compound A.
The mark [25] stands for this setting: mean ± std, read-out: IC50 Single Agent Compound A.
Setting [26] is: read-out: IC50 Single Agent Compound B.

Like-named read-outs stand apart in the source and are kept apart here.

As for `CC(=O)Nc1cccc(-n2c(=O)n(C3CC3)c(=O)c3c(Nc4ccc(I)cc4F)n(C)c(=O)c(C)c32)c1` [Compound A, N-{3-[3-cyclopropyl-5-(2-fluoro-4-iodo-phenylamino)6,8-dimethyl-2,4,7-trioxo-3,4,6,7-tetrahydro-2H-pyrido[4,3-d]pyrimidin-1-yl]phenyl}acetamide], the IC50 in [1] (setting [24]) was 1 ± 1 nM; in assay [2] (setting [25]) it was 557 ± 393 nM; in [3] (setting [25]) it was 92 ± 52 nM; in assay [4] (setting [24]), over 1000 nM; in assay [5], 58 to 109 nM; in assay [6] (setting [24]) it was 1 nM. The IC50 was 1 nM in assay [7] (setting [24]); 109 ± 22 nM in [8] (setting [25]); 11 ± 7 nM in [9] (setting [25]); 25 ± 7 nM in assay [10] (setting [24]); over 1000 nM in assay [11] (setting [24]); 10 ± 5 nM in [12] (setting [25]). The IC50 is 50 ± 11 nM in assay [13] (setting [25]); 42 ± 3 nM in assay [15] (setting [25]); 1 to 93 nM in assay [16] (six out of the seven colon lines without BRAF V600E mutation, read-out: IC50s, single agent); 1 to 25 nM in [17] (range over the four colon cell lines with BRAF V600E mutation); 59 ± 37 nM in assay [18] (setting [25]); 5 ± 4 nM in assay [19] (setting [25]). For the same molecule, the IC50 in assay [20] (setting [25]) is 58 ± 30 nM; in [21] (setting [24]), over 1000 nM; in assay [22] (setting [25]) it was 93 ± 63 nM; in [23] (setting [24]), 3 ± 2 nM. The “sensitivity to single agent” value in [14] is given as “resistant or insensitive”.
With `CC(C)(C)c1nc(-c2cccc(NS(=O)(=O)c3c(F)cccc3F)c2F)c(-c2ccnc(N)n2)s1` [Compound B, N-{3-[5-(2-Amino-4-pyrimidinyl)-2-(1,1-dimethylethyl)-1,3-thiazol-4-yl]-2-fluorophenyl}-2,6-difluorobenzenesulfonamide], the IC50 in assay [1] (setting [26]) is 22 ± 22 nM; in assay [2] (setting [26]), over 10000 nM; in assay [3] (setting [26]) it was over 10000 nM; in assay [4] (setting [26]) it was over 10000 nM; in [5] it was over 10000 nM; in [6] (setting [26]), 12 nM. The IC50 in assay [7] (setting [26]) was 18 ± 13 nM; in [8] (setting [26]), over 10000 nM; in assay [9] (setting [26]), over 10000 nM; in assay [10] (setting [26]) it was 5650 ± 3900 nM; in [11] (setting [26]) it was over 10000 nM; in [12] (setting [26]), over 10000 nM. In addition, the IC50 was over 10000 nM in [13] (setting [26]); over 10000 nM in assay [15] (setting [26]); over 10000 nM in assay [16] (read-out: IC50, single agent); 18 to 5650 nM in assay [17]; over 10000 nM in [18] (setting [26]); over 10000 nM in assay [19] (setting [26]). For the same molecule, the IC50 in assay [20] (setting [26]) was over 10000 nM; in assay [21] (setting [26]), over 10000 nM; in assay [22] (setting [26]), over 10000 nM; in assay [23] (setting [26]), 203 ± 15 nM. Moreover, the “sensitivity to single agent” value in [14] is “resistant or insensitive”.
